According to PubChem BioAssay AID330 (DTP/NCI, 2004):
“And” between values parts separate entries of the source, which are not always exact repeats. Identical values can stand only once. Inconclusive results and toxic doses are left out. Rule for the calls: active = survival T/C of 150% or more; inactive = T/C below 125% in these data.

Tested on: P388 leukemia ip, CD2F1 mice, survival T/C
Experiment: NCI In Vivo Anticancer Drug Screen. Data for tumor model P388 Leukemia (intraperitoneal) in CD2F1 (CDF1) mice
Conditions: endpoint: median survival time, higher = longer survival
In short: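 Mice carrying the transplanted tumor received test compound or vehicle. Survival was recorded in each group, and the value is the treated-group measurement divided by that of the vehicle-treated control group.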

[1] = dose: 100.0 mg/kg/injection, schedule: Q01DX001 (ip), vehicle: Klucel (hydroxypropylcellulose) (HPC)
[2] = dose: 200.0 mg/kg/injection, schedule: Q01DX001 (ip), vehicle: Klucel (hydroxypropylcellulose) (HPC)
[3] = dose: 50.0 mg/kg/injection, schedule: Q01DX009 (ip), vehicle: saline
[4] = dose: 100.0 mg/kg/injection, schedule: Q01DX009 (ip), vehicle: saline
[5] = dose: 200.0 mg/kg/injection, schedule: Q01DX009 (ip), vehicle: saline
[6] = dose: 60.0 mg/kg/injection, schedule: Q01DX005 (ip), vehicle: saline with Tween-80
[7] = dose: 120.0 mg/kg/injection, schedule: Q01DX005 (ip), vehicle: saline with Tween-80
[8] = dose: 50.0 mg/kg/injection, schedule: Q01DX005 (ip), vehicle: Klucel (hydroxypropylcellulose) (HPC)
[9] = dose: 100.0 mg/kg/injection, schedule: Q01DX005 (ip), vehicle: Klucel (hydroxypropylcellulose) (HPC)
[10] = dose: 200.0 mg/kg/injection, schedule: Q01DX005 (ip), vehicle: Klucel (hydroxypropylcellulose) (HPC)
[11] = dose: 50.0 mg/kg/injection, schedule: Q01DX005 (ip), vehicle: saline with Tween-80
[12] = dose: 100.0 mg/kg/injection, schedule: Q01DX005 (ip), vehicle: saline with Tween-80
[13] = dose: 200.0 mg/kg/injection, schedule: Q01DX005 (ip), vehicle: saline with Tween-80
[14] = dose: 50.0 mg/kg/injection, schedule: Q01DX009 (ip), vehicle: saline with Tween-80
[15] = dose: 100.0 mg/kg/injection, schedule: Q01DX009 (ip), vehicle: saline with Tween-80
[16] = dose: 200.0 mg/kg/injection, schedule: Q01DX009 (ip), vehicle: saline with Tween-80
[17] = dose: 12.5 mg/kg/injection, schedule: Q01DX005 (ip), vehicle: Klucel (hydroxypropylcellulose) (HPC)
[18] = dose: 25.0 mg/kg/injection, schedule: Q01DX005 (ip), vehicle: Klucel (hydroxypropylcellulose) (HPC)

Measured: T/C

COC(=O)Nc1nc2ccc(C(=O)c3ccccc3)cc2[nH]1
inactive: dose: 2.0 mg/kg/injection, schedule: Q04DX003 (ip), vehicle: saline with Tween-80 100 % of control | dose: 4.0 mg/kg/injection, schedule: Q04DX003 (ip), vehicle: saline with Tween-80 100 % of control | dose: 8.0 mg/kg/injection, schedule: Q04DX003 (ip), vehicle: saline with Tween-80 113 % of control | dose: 16.0 mg/kg/injection, schedule: Q04DX003 (ip), vehicle: saline with Tween-80 118 % of control | dose: 80.0 mg/kg/injection, schedule: Q04DX003 (oral), vehicle: other 112 % of control and 113 % of control | dose: 80.0 mg/kg/injection, schedule: Q04DX003 (oral), vehicle: saline 98 % of control | dose: 320.0 mg/kg/injection, schedule: Q04DX003 (oral), vehicle: saline 115 % of control
active: dose: 32.0 mg/kg/injection, schedule: Q04DX003 (ip), vehicle: saline with Tween-80 202 % of control | dose: 64.0 mg/kg/injection, schedule: Q04DX003 (ip), vehicle: saline with Tween-80 190 % of control | dose: 80.0 mg/kg/injection, schedule: Q04DX003 (ip), vehicle: other 192 % of control | dose: 1280.0 mg/kg/injection, schedule: Q04DX003 (oral), vehicle: saline 165 % of control

Cc1ccc(S(=O)(=O)NCC(CNS(=O)(=O)c2ccc(C)cc2)C(C)(C)C)cc1
inactive: [1] 93 % of control | [2] 93 % of control

CC1(C)CN(c2ccccc2)N(C(=O)C(=O)N2C(=O)C(C)(C)CN2c2ccccc2)C1=O
inactive: dose: 100.0 mg/kg/injection, schedule: Q04DX002 (ip), vehicle: saline 104 % of control | dose: 200.0 mg/kg/injection, schedule: Q04DX002 (ip), vehicle: saline 102 % of control | dose: 400.0 mg/kg/injection, schedule: Q04DX002 (ip), vehicle: saline 100 % of control

COc1ccc(-c2nc3[nH]c(=S)[nH]c(=O)c3nc2-c2ccc(OC)c(OC)c2)cc1OC
inactive: [1] 103 % of control | [2] 105 % of control | dose: 400.0 mg/kg/injection, schedule: Q01DX001 (ip), vehicle: Klucel (hydroxypropylcellulose) (HPC) 90 % of control

CC1CC[N+](C)([B-](F)(F)F)CC1 (centres undefined)
inactive: dose: 50.0 mg/kg/injection, schedule: Q01DX005 (ip), vehicle: saline 100 % of control | dose: 100.0 mg/kg/injection, schedule: Q01DX005 (ip), vehicle: saline 106 % of control

N/C(=N\O)c1ccc2oc(/C=C/c3cc4cc(/C(N)=N\O)ccc4o3)cc2c1
inactive: [3] 100 % of control | [4] 97 % of control | [5] 91 % of control

COc1ccc2n[se]nc2c1
inactive: [6] 93 % of control | [7] 93 % of control

O=C(C#Cc1ccccc1)C1=Cc2ccccc2OC1
inactive: [8] 94 % of control | [9] 95 % of control | [10] 96 % of control

CCS(=O)c1ccccc1 (centres undefined)
inactive: dose: 100.0 mg/kg/injection, schedule: Q04DX002 (ip), vehicle: Klucel (hydroxypropylcellulose) (HPC) 100 % of control | dose: 200.0 mg/kg/injection, schedule: Q04DX002 (ip), vehicle: Klucel (hydroxypropylcellulose) (HPC) 100 % of control | dose: 400.0 mg/kg/injection, schedule: Q04DX002 (ip), vehicle: Klucel (hydroxypropylcellulose) (HPC) 102 % of control

Cn1c(COc2ccc(/C=N/Nc3ccnc(N/N=C/c4ccc(OCc5c[n+]6ccccc6n5C)cc4)n3)cc2)c[n+]2ccccc12
inactive: dose: 12.5 mg/kg/injection, schedule: Q01DX005 (ip), vehicle: saline with Tween-80 105 % of control | dose: 25.0 mg/kg/injection, schedule: Q01DX005 (ip), vehicle: saline with Tween-80 106 % of control | [11] 104 % of control and 107 % of control | [12] 99 % of control | [13] 97 % of control

O=C(O)CSC(=O)Nc1ccc(N=Nc2ccccc2)cc1
inactive: [11] 102 % of control | [12] 91 % of control

O=C(Cn1cnc2ccc([N+](=O)[O-])cc21)N1CCN(c2ccccc2)CC1
inactive: [6] 93 % of control | [7] 93 % of control

COc1ccc(CCN(C)CCCC(C#N)(c2ccc(OC)c(OC)c2)C(C)C)cc1OC (centres undefined)
inactive: dose: 1.0 mg/kg/injection, schedule: Q02HX018 (sc), vehicle: water 99 % of control | dose: 2.0 mg/kg/injection, schedule: Q02HX018 (sc), vehicle: water 99 % of control | dose: 4.0 mg/kg/injection, schedule: Q02HX006 (sc), vehicle: saline with Tween-80 100 % of control | dose: 4.0 mg/kg/injection, schedule: Q02HX018 (sc), vehicle: water 103 % of control | dose: 8.0 mg/kg/injection, schedule: Q02HX006 (sc), vehicle: saline with Tween-80 96 % of control | dose: 8.0 mg/kg/injection, schedule: Q02HX018 (sc), vehicle: water 110 % of control | dose: 8.0 mg/kg/injection, schedule: Q03HX006 (ip), vehicle: saline 104 % of control | dose: 16.0 mg/kg/injection, schedule: Q02HX006 (sc), vehicle: saline with Tween-80 106 % of control | dose: 16.0 mg/kg/injection, schedule: Q02HX018 (sc), vehicle: water 108 % of control | dose: 16.0 mg/kg/injection, schedule: Q03HX006 (ip), vehicle: saline 101 % of control | dose: 32.0 mg/kg/injection, schedule: Q02HX006 (sc), vehicle: saline with Tween-80 82 % of control | dose: 32.0 mg/kg/injection, schedule: Q03HX006 (ip), vehicle: saline 103 % of control | dose: 64.0 mg/kg/injection, schedule: Q02HX006 (sc), vehicle: saline with Tween-80 19 % of control

O=c1[nH][nH]c(=O)c2c1CCCC2
inactive: dose: 25.0 mg/kg/injection, schedule: Q01DX009 (ip), vehicle: saline 107 % of control | [3] 95 % of control | [4] 100 % of control | [5] 101 % of control

CCCCOCN(COCCCC)c1ccccn1
inactive: dose: 25.0 mg/kg/injection, schedule: Q01DX009 (ip), vehicle: saline with Tween-80 103 % of control | [14] 100 % of control | [3] 111 % of control | [15] 116 % of control | [4] 122 % of control | [16] 116 % of control | [5] 117 % of control

O=[N+]([O-])c1cccc2c(S(=O)(=O)O)cccc12
inactive: dose: 50.0 mg/kg/injection, schedule: Q04DX003 (ip), vehicle: saline 90 % of control | dose: 100.0 mg/kg/injection, schedule: Q04DX003 (ip), vehicle: saline 100 % of control | dose: 200.0 mg/kg/injection, schedule: Q04DX003 (ip), vehicle: saline 90 % of control

COc1ccc2c3c([nH]c2c1)[C@H]1C[C@H]2[C@H](C[C@@H](O)[C@H](OC)[C@H]2CO)CN1CC3
inactive: [8] 104 % of control | [9] 95 % of control | [10] 90 % of control

CSC(C(OC(C)=O)C(OC(C)=O)C(OC(C)=O)C(COC(C)=O)OC(C)=O)n1cnc2c(=S)nc[nH]c21 (centres undefined)
inactive: [11] 101 % of control | [12] 92 % of control | [13] 89 % of control

CN(C)S(=O)(=O)Nc1ccccn1
inactive: [14] 106 % of control | [15] 92 % of control | [16] 86 % of control

CP(C)(=S)[S][Sn]([CH3])([CH3])[S]P(C)(C)=S
inactive: dose: 6.25 mg/kg/injection, schedule: Q01DX005 (ip), vehicle: Klucel (hydroxypropylcellulose) (HPC) 109 % of control and 113 % of control | [17] 108 % of control and 115 % of control and 117 % of control | [18] 105 % of control and 106 % of control and 122 % of control

CC1=CC(=O)C(O)C2(C)C1CC1OC(=O)C(OC3OC(CO)C(O)C(O)C3O)C3C(C)C(O)C4(O)OCC13C42 (centres undefined)
inactive: dose: 0.25 mg/kg/injection, schedule: Q01DX005 (ip), vehicle: water 101 % of control | dose: 0.5 mg/kg/injection, schedule: Q01DX005 (ip), vehicle: water 102 % of control

COc1cc2c(cc1OC(C)=O)C=CCCC2=O
inactive: dose: 100.0 mg/kg/injection, schedule: Q04DX003 (ip), vehicle: saline with Tween-80 105 % of control | dose: 200.0 mg/kg/injection, schedule: Q04DX003 (ip), vehicle: saline with Tween-80 100 % of control | dose: 400.0 mg/kg/injection, schedule: Q04DX003 (ip), vehicle: saline with Tween-80 105 % of control

CC1(C)NC2Cc3c([nH]c4ccccc34)C3(C)CCC1CC23 (centres undefined)
inactive: [17] 94 % of control | [18] 94 % of control | [8] 89 % of control | [9] 108 % of control
